The test system of this test is endogenous ATPase of L929 cell lysate. Nature of the test: ATPase inhibition at 22° C. and 37° C. by buffered detergent solution with 1% DTAB. Type of test: biochemical. The following applies: up to five hours. As to the method:
Cell lysate was prepared as described in Example 1. The ability of 1% DTAB to inhibit endogenous ATPase (i.e., ATPase present in a sample) was measured in a complete reagent composition over time at both 22° C. (room temperature) and 37° C. Three cell lysate samples were prepared. Sample 1 contained 4.0 ml L929 cell lysate plus 4.0 ml 25 mM Hepes, pH 7.5. Sample 2 contained 4.0 ml L929 cell lysate plus 4.0 ml buffered detergent solution (40 mM Citrate (pH 6.0), 110 mM MES (pH 6.0), 450 mM KPO4 (pH 6.0), 2.0 mM EDTA, 0.2% Mazu DF-204 (PPG Industries), 2.0 mM NaF, 1.0% DTAB and 2% THESIT—final pH of the buffered detergent solution adjusted to 6.0). Sample 3 contained 4.0 ml DMEM/F12 media (no serum) containing 0.1 μM ATP plus 4.0 ml 25 mM Hepes (pH 7.5). The samples were divided in half; half was incubated at 22° C., half was incubated at 37° C. After 10 minutes of incubation in their respective water baths to allow the solution at 37° C. to reach that temperature (this point is referred to as time=10 min.), 100 μl of each sample was transferred independently to a well of a 96-well luminometer plate in quadruplicate. To each 100 μl sample was added 20 μl of a solution containing luciferin (12.5 mM)/luciferase (200 μg/ml LucPpe2m146)/MgSO4 (50 mM) solution. The resulting relative light units were measured on a Dynex luminometer using 0.5 second reads. […]

Experimental findings from patent US20030104507A1, “Method for detection of ATP” (priority 2001, published 2003) are described below.

Molecules are shown by their SMILES.

`CCCCCCCCCCCC[N+](C)(C)C.[Br-]` [DTAB, dodecyltrimethylammonium bromide]: the “loss of ATP (inhibition of ATPase endogenous to the sample)” value was “no loss of ATP” (22° C.) and “minimal loss” (37° C.).
